Test results: ChEMBL document CHEMBL1201862, “PubChem BioAssay data set” (2004)
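Five concentrations, 48 hours, 96-well plates. GI50 marks 50% less growth.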 The source made the active and inactive calls. No stated cut-off is given here; in the data, active = GI50 up to about 1.1 µM and inactive = higher.

What was measured:
Experiment in all cases: inhibition of tumour cell growth, NCI panel, 48 h
786-0 = test system: 786-0
CAKI-1 = test system: CAKI-1
EKVX = test system: EKVX
HOP-62 = test system: HOP-62
K562 = test system: K562
LOX IMVI = test system: LOX IMVI
OVCAR-8 = test system: OVCAR-8
SF-268 = test system: SF-268
SK-MEL-28 = test system: SK-MEL-28
SK-MEL-5 = test system: SK-MEL-5
SN12C = test system: SN12C
SNB-19 = test system: SNB-19
SNB-75 = test system: SNB-75
SW-620 = test system: SW-620
T47D = test system: T47D
TK-10 = test system: TK-10
M14 = test system: M14
MDA-MB-435 = test system: MDA-MB-435
NCI-H522 = test system: NCI-H522
BT-549 = test system: BT-549

Measured: GI50

C=C1CN=C(Nc2ccc(F)cc2F)S1
inactive: 786-0 > 100 µM | CAKI-1 > 100 µM | EKVX > 100 µM | HOP-62 > 100 µM | K562 30.5 µM | LOX IMVI 18.9 µM | OVCAR-8 > 100 µM | SF-268 > 100 µM | SK-MEL-28 > 100 µM | SK-MEL-5 > 100 µM | SN12C > 100 µM | SNB-19 > 100 µM | SNB-75 32.1 µM | SW-620 > 100 µM | T47D > 100 µM | TK-10 > 100 µM

COCCOCc1nc(C#N)c(N)o1
inactive: 786-0 > 100 µM | CAKI-1 > 100 µM | EKVX > 100 µM | HOP-62 > 100 µM | K562 > 100 µM | LOX IMVI > 100 µM | M14 > 100 µM | MDA-MB-435 > 100 µM | NCI-H522 > 10 µM | SF-268 > 100 µM | SK-MEL-28 > 100 µM | SK-MEL-5 > 100 µM | SN12C > 100 µM | SNB-19 > 100 µM | SNB-75 > 100 µM | SW-620 > 100 µM | T47D > 100 µM | TK-10 > 100 µM

CC1(C)N=C2C(=O)c3c([nH]c4ccccc34)[C@]3(C)CCC1CC23 (some centres not stated)
inactive: 786-0 > 6.25 µM | BT-549 > 6.25 µM | CAKI-1 > 6.25 µM | EKVX > 6.25 µM | HOP-62 > 6.25 µM | K562 > 6.25 µM | LOX IMVI > 6.25 µM | MDA-MB-435 > 6.25 µM | NCI-H522 > 6.25 µM | OVCAR-8 > 6.25 µM | SF-268 > 6.25 µM | SK-MEL-28 > 6.25 µM | SK-MEL-5 > 6.25 µM | SN12C > 6.25 µM | SNB-75 > 6.25 µM | SW-620 > 6.25 µM | TK-10 > 6.25 µM

C=C(c1ccccc1)c1ccccc1-c1cc(-c2ccccc2)cc(-c2ccccc2)n1
inactive: 786-0 > 100 µM | CAKI-1 > 100 µM | EKVX > 100 µM | HOP-62 > 100 µM | K562 53.6 µM | LOX IMVI > 100 µM | M14 > 100 µM | MDA-MB-435 82.2 µM | NCI-H522 28.4 µM | OVCAR-8 > 100 µM | SF-268 > 100 µM | SK-MEL-28 > 100 µM | SK-MEL-5 78.3 µM | SN12C > 100 µM | SNB-19 > 100 µM | SNB-75 > 100 µM | SW-620 > 100 µM | T47D 9.08 µM | TK-10 > 100 µM

Nc1ccc(N)c2c1C(=O)c1c(N)ccc(N)c1C2=O
inactive: 786-0 36.9 µM | CAKI-1 49.9 µM | EKVX > 64.9 µM | HOP-62 78.2 µM | K562 > 92.9 µM | LOX IMVI > 31.6 µM | M14 > 77.3 µM | NCI-H522 27.5 µM | OVCAR-8 58.9 µM | SF-268 45.7 µM | SK-MEL-28 98.6 µM | SK-MEL-5 37.8 µM | SN12C > 63.5 µM | SNB-19 47.8 µM | SNB-75 28.4 µM | SW-620 52.6 µM | TK-10 > 59.3 µM

COC(=O)C(=O)C1CCCCC(C2=NC3NN=C(N)N3C2=O)C1=O (configuration not stated)
inactive: 786-0 > 100 µM | CAKI-1 > 100 µM | EKVX > 100 µM | HOP-62 > 100 µM | K562 > 100 µM | LOX IMVI > 100 µM | M14 > 100 µM | NCI-H522 > 100 µM | OVCAR-8 > 100 µM | SF-268 > 100 µM | SK-MEL-28 > 100 µM | SK-MEL-5 > 100 µM | SN12C > 100 µM | SNB-19 > 100 µM | SNB-75 > 100 µM | SW-620 > 100 µM | TK-10 > 100 µM

O=C1C(O)=C(Cl)C(=O)c2c(O)ccc(O)c21
inactive: 786-0 > 100 µM | CAKI-1 > 100 µM | EKVX > 100 µM | HOP-62 > 100 µM | K562 > 100 µM | M14 > 100 µM | OVCAR-8 > 100 µM | SF-268 > 100 µM | SK-MEL-28 > 100 µM | SK-MEL-5 > 100 µM | SNB-19 > 100 µM | SNB-75 > 100 µM | SW-620 > 100 µM | T47D > 100 µM | TK-10 > 100 µM

C[C@]12CCC[C@H](Cl)C1(O)C[C@H](C(=O)O)CC2 (some centres not stated)
inactive: 786-0 > 100 µM | CAKI-1 > 100 µM | EKVX > 100 µM | HOP-62 > 100 µM | K562 > 100 µM | LOX IMVI > 100 µM | M14 > 100 µM | NCI-H522 > 100 µM | OVCAR-8 > 100 µM | SF-268 > 100 µM | SK-MEL-28 > 100 µM | SK-MEL-5 > 100 µM | SN12C > 100 µM | SNB-19 > 100 µM | SNB-75 > 100 µM | SW-620 > 100 µM | TK-10 > 100 µM

CC1=CC(=O)CC(C)(C)C1/C=C/C(C)=C/C=C/C(C)=C/C=C/C=C(C)/C=C/C=C(C)/C=C/C1C(C)=CC(=O)CC1(C)C (configuration not stated)
inactive: 786-0 34.4 µM | CAKI-1 58.7 µM | EKVX 92.9 µM | HOP-62 42 µM | K562 37.2 µM | LOX IMVI 29.3 µM | M14 40.4 µM | MDA-MB-435 23.4 µM | NCI-H522 20.8 µM | OVCAR-8 20.1 µM | SF-268 44.4 µM | SK-MEL-28 > 100 µM | SK-MEL-5 45.8 µM | SW-620 23.2 µM | T47D > 100 µM | TK-10 77.1 µM

CC1(C)COC(c2cccc(C(O)c3ccc(Cl)cc3)c2)=N1 (configuration not stated)
inactive: 786-0 23.9 µM | CAKI-1 42.3 µM | EKVX 35.4 µM | HOP-62 30.1 µM | K562 23.4 µM | LOX IMVI 15 µM | M14 19.9 µM | MDA-MB-435 24.9 µM | NCI-H522 31.8 µM | OVCAR-8 16.1 µM | SF-268 31.1 µM | SK-MEL-28 29.2 µM | SK-MEL-5 14.4 µM | SN12C 26.9 µM | SNB-19 32.6 µM | SNB-75 2.94 µM | SW-620 28.9 µM | T47D 36.3 µM | TK-10 32.6 µM

Cc1c(Cl)ccc2c1NC(=O)C2(O)CC(=O)c1ccc(Cl)cc1 (configuration not stated)
inactive: 786-0 47.1 µM | CAKI-1 > 71.9 µM | EKVX > 55.8 µM | HOP-62 97.3 µM | K562 22.8 µM | LOX IMVI 19.7 µM | M14 > 100 µM | NCI-H522 > 61.5 µM | OVCAR-8 34.9 µM | SF-268 > 70.1 µM | SK-MEL-28 > 94.4 µM | SK-MEL-5 53.3 µM | SN12C 26.8 µM | SNB-19 97.3 µM | SNB-75 76.2 µM | SW-620 29.9 µM | TK-10 > 100 µM

Fc1ccc(C2SCc3nc4ccccc4n32)cc1 (configuration not stated)
inactive: 786-0 42.9 µM | CAKI-1 36.8 µM | EKVX 58.1 µM | HOP-62 35.8 µM | K562 31.3 µM | LOX IMVI 49.2 µM | M14 43.3 µM | NCI-H522 14.1 µM | OVCAR-8 49 µM | SF-268 54.3 µM | SK-MEL-28 23.6 µM | SK-MEL-5 15.8 µM | SN12C 27 µM | SNB-19 6.1 µM | SNB-75 3.1 µM | SW-620 74.6 µM | TK-10 24.4 µM

Cc1ccc2ccccc2c1CC1S(=O)(=O)OCCOS1(=O)=O
inactive: 786-0 16.4 µM | BT-549 11.2 µM | CAKI-1 12.1 µM | EKVX 16.2 µM | HOP-62 12.6 µM | K562 9.12 µM | LOX IMVI 7.94 µM | M14 12.9 µM | MDA-MB-435 8.67 µM | OVCAR-8 14.5 µM | SK-MEL-28 16 µM | SK-MEL-5 12.8 µM | SN12C 10.1 µM | SNB-19 12.7 µM | TK-10 16.6 µM

COCN(C)c1nc(N(C)C)nc(N(C)C)n1
inactive: 786-0 > 100 µM | CAKI-1 > 100 µM | EKVX > 100 µM | HOP-62 > 100 µM | K562 > 100 µM | LOX IMVI > 100 µM | M14 > 100 µM | NCI-H522 9.06 µM | OVCAR-8 > 100 µM | SF-268 > 100 µM | SK-MEL-28 > 100 µM | SK-MEL-5 > 100 µM | SN12C > 100 µM | SNB-19 > 100 µM | SNB-75 > 100 µM | SW-620 > 100 µM | TK-10 > 100 µM

CCOC(=O)C1C(c2ccc3c(c2)OCO3)c2c(n[nH]c2O)CC1(C)O (configuration not stated)
inactive: 786-0 > 100 µM | CAKI-1 > 100 µM | EKVX > 100 µM | HOP-62 > 100 µM | LOX IMVI > 100 µM | M14 > 100 µM | MDA-MB-435 > 100 µM | NCI-H522 > 100 µM | OVCAR-8 > 100 µM | SF-268 > 100 µM | SK-MEL-28 > 100 µM | SK-MEL-5 > 100 µM | SN12C > 100 µM | SNB-19 > 100 µM | SNB-75 > 100 µM | SW-620 > 100 µM | T47D > 100 µM | TK-10 > 100 µM

N#CC1(c2nc3ccccc3o2)C(=O)C(=O)N(c2ccc(Cl)c(Cl)c2)C(=O)C1=O
inactive: 786-0 > 100 µM | CAKI-1 > 100 µM | EKVX > 100 µM | HOP-62 > 100 µM | K562 71 µM | LOX IMVI > 100 µM | M14 > 100 µM | NCI-H522 > 100 µM | OVCAR-8 > 100 µM | SF-268 > 100 µM | SK-MEL-28 > 100 µM | SK-MEL-5 > 100 µM | SN12C > 100 µM | SNB-19 > 100 µM | SNB-75 > 100 µM | SW-620 > 100 µM | TK-10 > 100 µM
